# Measurements published in patent publication US7135590B2, “Gallic acid derivative and process of preparing the same” (Council of Scientific and Industrial Research, priority 2003, dated 2006).
# Experiments:
# Bacopa monnieri = assay: Growth promoting activity using Bacopa sensor system; type: in vivo
# Protocol: For testing the growth promoting effect of methanone-(3′,4′,5′-trimethoxy) phenyl, 1-naphthyl, 2-O-4″-ethyl but-2″-enoate, the compounds was dissolved in DMSO and added into the medium at 1.0 μg/ml. Only solvent was used as a control in the experiment for comparison. A fast propagating strain of Bacopa monnieri developed as a biosensor system through tissue culture at CIMAP (Khanuja et al., 2001, J Environa Pathol, Toxicol and Onco (JEPTO), 20:pp. 15 to 22) was used in the tests. The MS basal medium (Murashige and Skoog, 1962, Physiol. Planta. 15: pp. 473 to 497) supplemented with test compounds was used in the assays. Measured 0.5 to 1.0 ml medium was poured into 1.5 ml graduated microcentrifuge tubes. Twig cuttings of 2.5 cm were inoculated in 10 replicates for each treatment. These inoculated tubes were put into a half transparent desiccator allowing air passage through sterile cotton plugs fixed on opening vent. The tubes were placed such that the medium-containing portion of the tubes where roots would be initiating is inserted in to the holes of the stand made from a thermocol sheet. These desiccators were incubated at normal ambient temperature of 25 to 28° C. with 14 hours light and 10 hours dark cycle. The root initiation, shoot elongation, callus induction, shoot proliferation and wilting was recorded from day 2 to 14 every 24 hours.
# Mentha arvensis = assay: Growth promoting activity with Mentha arvensis internode explants; type: in vivo
# Protocol: To confirm the growth promoting activity of methanone-(3′,4′,5′-trimethoxy) phenyl, 1-naphthyl, 2-O-4″-ethyl but-2″-enoate, it was tested with a medicinal and aromatic plant species Mentha arvensis. The explants used were 0.5 cm long pieces of the second and third internodes of the shoots formed from axillary buds and culture. The internode segments were inoculated in MS basal media (Murashige and Skoog, 1962, Physiol. Planta. 15: pp. 473 to 497) containing vitamins 100 μg/ml, myo-inositol 3%, w/v, sucrose 1.5% w/v, Agar and different concentrations of auxins and cytokinin. Different concentrations of 1-naphthalene acetic acid (NM) (0.0, 0.2, 2.0 μg/ml) were used in combination with different concentrations of 6 benzyl amino purine (BAP) (0, 10 & 5 μg/ml). On each kind of media […] of the explants were inoculated into three petriplates with each plates containing 4 explants. Compound 1 was serially replaced with each concentration of NM and BAP individually to observe its growth promoting activity. The experiment was arranged in the form of a completely randomized design (CRD).
# Cultures were maintained at 25±2° C. and 400 to 600 lux light intensity with 16 h photoperiod. The response of explants was recorded every 24 h over 4 week periods. […] The proportional increase in biomass was recorded by taking the fresh weight of the growing tissue during sub culturing and dividing the increase with the initial weight.
# At the end of 12 weeks from inoculation the shoots were separated and individually transferred to MS basal media containing vitamins for rooting. The rooted plantlets were subsequently transferred to pods in a green house.
# The basal medium for studying the response was MS 0 (Murashige and Skoog, 1962, Physiol. Planta. 15: pp. 473 to 497) supplemented with 0.2 mg/L IAA (indole acetic acid) and 5 mg/L BAP (benzene amino purine).
# The basal medium for studying the response was MS 0 (Murashige and Skoog, 1962, Physiol. Planta. 15: pp. 473 to 497) supplemented with 2mg/L IAA (indole acetic acid) and 10 mg/L BAP (benzene amino purine).
smiles,measurement,setting,value
"CCOC(=O)C=CCOc1ccc2ccccc2c1C(=O)c1cc(OC)c(OC)c(OC)c1 [Compound 1, methanone-(3′,4′,5′-trimethoxy) phenyl, 1-naphthyl 2-O-4″-ethyl but-2″-enoate]",Shoot Elongation,"Bacopa monnieri; 1.0 μg/ml in MS basal medium, 2.5 cm twig cuttings, 10 replicates, recorded day 2 to 14, control 1.0",1.6 cms
same,Browning Yellowing Death,"Bacopa monnieri; 1.0 μg/ml in MS basal medium, twig cuttings, day 2 to 14",Nil
same,Root Elongation,"Bacopa monnieri; 1.0 μg/ml in MS basal medium, twig cuttings, day 2 to 14, control 0.8",0.8 cms
same,Branching,"Bacopa monnieri; 1.0 μg/ml in MS basal medium, twig cuttings, day 2 to 14, control 2.0",2.0 nos
same,Number of Roots,"Bacopa monnieri; 1.0 μg/ml in MS basal medium, twig cuttings, day 2 to 14, control 2 + 2",2 + 2 nos
same,Number of Leaves,"Bacopa monnieri; 1.0 μg/ml in MS basal medium, twig cuttings, day 2 to 14, control 5.0",11.0 nos
same,enhances the shoot elongation,Bacopa monnieri; within 15 days,about 1.6 cm
same,Number of shoots observed after three weeks,"Mentha arvensis; Medium A2 with IAA replaced: BAP 5.0, Compound 1 0.2, no roots",1–2 shoots shoots per explant
same,Number of shoots observed after three weeks,"Mentha arvensis; Medium A3 with IAA replaced: BAP 10.0, Compound 1 2.0, single root in one replication",3–4 shoots shoots per explant
same,shoots produced,Mentha arvensis; within three weeks in medium A3,3 to 4 shoots
